Data as given in the supplement of paper PMC10307832.

Columns and labels:
Test in all cases: relative viability (nuclei count vs DMSO), 5 days (fraction); higher = more cells survive
[1] = compound: CCC1=CN=CN=C1N2CCN(CC2)CC3=NC4=C(N3)C=C(C=C4)C(F)(F)F + CCNC(=O)c1noc(-c2cc(C(C)C)c(O)cc2O)c1-c1ccc(CN2CCOCC2)cc1 [Luminespib] (partner 0.01 µM)
In short: (§1)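 Each reported value is a median over duplicate plates. It expresses relative viability: treated-well nuclei count divided by vehicle-well nuclei count. Lung cancer cell lines in 1536-well plates were dosed by pin tool a day after seeding, alone with one drug or with a fixed anchor-drug dose plus five library-drug doses (not always all listed) in √10 steps, and nuclei were counted after 5 days.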

[2] = compound: CCC1=CN=CN=C1N2CCN(CC2)CC3=NC4=C(N3)C=C(C=C4)C(F)(F)F + CS(=O)(=O)CCNCc1ccc(-c2ccc3ncnc(Nc4ccc(OCc5cccc(F)c5)c(Cl)c4)c3c2)o1 [Lapatinib] (partner 2 µM)
In short: as §1

Mirin + Pictilisib = compound: N=C1NC(=O)/C(=C/c2ccc(O)cc2)S1 [Mirin] + CS(=O)(=O)N1CCN(Cc2cc3nc(-c4cccc5[nH]ncc45)nc(N4CCOCC4)c3s2)CC1 [Pictilisib] (partner 1 µM)
In short: as §1

[3] = compound: CCC1=CN=CN=C1N2CCN(CC2)CC3=NC4=C(N3)C=C(C=C4)C(F)(F)F + NC(=O)Nc1cc(-c2cccc(F)c2)sc1C(=O)N[C@H]1CCCNC1 [AZD7762] (partner 0.2 µM)
In short: as §1

Cell Line | relative viability ([1]; first compound 0.04 µM) | relative viability ([1]; first compound 0.1265 µM) | relative viability ([1]; first compound 0.4 µM) | relative viability ([1]; first compound 1.265 µM) | relative viability ([1]; first compound 4 µM) | relative viability ([2]; first compound 0.04 µM) | relative viability ([2]; first compound 0.1265 µM) | relative viability ([2]; first compound 0.4 µM) | relative viability ([2]; first compound 1.265 µM) | relative viability ([2]; first compound 4 µM) | relative viability (Mirin + Pictilisib; first compound 0.25 µM) | relative viability (Mirin + Pictilisib; first compound 2.5 µM) | relative viability (Mirin + Pictilisib; first compound 7.906 µM) | relative viability (Mirin + Pictilisib; first compound 25 µM) | relative viability ([3]; first compound 0.04 µM) | relative viability ([3]; first compound 0.1265 µM) | relative viability ([3]; first compound 0.4 µM) | relative viability ([3]; first compound 1.265 µM) | relative viability ([3]; first compound 4 µM) | relative viability (Mirin + Pictilisib; first compound 0.7906 µM)
SW 1573 | 0.158 | 0.211 | 0.174 | 0.273 | 0.399 | 1.12 | 0.949 | 1 | 1 | 1.08 | 0.473 | 0.466 | 0.355 | 0.289 | – | – | – | – | – | –
LOU-NH91 | 0.341 | 0.403 | 0.32 | 0.323 | 0.313 | 0.761 | 0.794 | 0.77 | 0.644 | 0.844 | 0.499 | 0.496 | 0.502 | 0.46 | 0.758 | 0.743 | 0.72 | 0.634 | 0.831 | –
LXF-289 | 0.701 | 0.64 | 0.685 | 0.63 | 0.676 | 1 | 0.853 | 0.845 | 0.974 | 0.899 | 0.744 | 0.803 | 0.844 | 0.701 | 1.3 | 1.01 | 1.1 | 1.29 | 1.05 | 0.747
NCI-H1299 | – | – | – | – | – | 0.977 | 0.985 | 0.96 | 0.948 | 0.955 | 0.811 | 0.787 | 0.688 | 0.602 | – | – | – | – | – | 0.823
HARA | 0.668 | 0.561 | 0.682 | – | 0.555 | 0.894 | 0.762 | 0.687 | 0.602 | 0.866 | 0.367 | 0.437 | 0.335 | 0.169 | 0.484 | 0.263 | 0.339 | 0.292 | 0.436 | 0.353
LU99A | 0.247 | 0.227 | 0.309 | 0.22 | 0.229 | 0.964 | 0.989 | 0.95 | 0.926 | 0.948 | 0.282 | 0.295 | 0.283 | 0.271 | 0.41 | 0.301 | 0.34 | 0.359 | 0.403 | 0.302
201T | 1.08 | 1.04 | 0.974 | 0.938 | 0.96 | 1.01 | 0.992 | 1.03 | 0.947 | 1.09 | 0.704 | 0.614 | 0.753 | 0.67 | 0.64 | 0.581 | 0.511 | 0.585 | 0.681 | 0.668
HCC-827 | 0.687 | 0.588 | 0.544 | – | 0.587 | 0.201 | 0.182 | 0.184 | 0.165 | 0.178 | 1.16 | 1.04 | 1.03 | 1.21 | 0.186 | 0.233 | 0.208 | 0.196 | 0.174 | 1.08
NCI-H1666 | 0.949 | 0.906 | 0.925 | 0.908 | 1.04 | 0.625 | 0.579 | 0.482 | 0.544 | 0.616 | 0.445 | 0.365 | 0.36 | 0.324 | 0.864 | 0.77 | 0.767 | 0.716 | 0.815 | 0.64
